Experiments:
Format in all cases: cell-based, Chinese Hamster
Cell Line 3 = experiment: N-glycan oligosaccharide profiling, Cell Line 3 shake flasks (Example 2); conditions: 30 mM supplement vs control
Protocol: Two recombinant Chinese Hamster Ovary (CHO) cell lines expressing two different recombinant glycoproteins were evaluated in two different cultures vessels (shaker flasks and 3 L laboratory scale bioreactors). Cell Line 1 expressed Antibody 1, Cell Line 2 expressed Dual Variable Domain Immunoglobulin 1 (DVD 1) and Cell Line 3 expressed Antibody 2. Antibodies 1 and 2 are IgG1 proteins, and DVD 1 is an immunoglobulin with two variable domains as documented previously (Wu C. et al., (2007) Nat. Biotechnol 25(11):1290-1297). All cell lines were of CHO DUX-B11 origin based on a dhfr (dihydrofolate reductase) expression system. All cell lines were cultured in the same chemically defined basal media. Cell lines 1 and 2 were fed with the same chemically-defined feed media, but Cell Line 1 was fed media that was formulated at a 50% higher concentration. Each of the respective media were supplemented with either sucrose or tagatose to evaluate their potential impact on the resulting N-glycan oligosaccharide profile. All sugars were purchased from Sigma-Aldrich (St. Louis, Mo.). In preparation of the cultures, the cell lines were serially expanded through separate seed train inoculums to generate enough cells for inoculation.
(§1) Purified antibodies subjected to additional analytical characterization were purified using MabSelect™ Protein A (GE Healthcare, Piscataway, N.J.) using a low pH, step elution gradient, followed by buffer exchange using Corning Lifesciences (Tewksbury, Mass.) Spin Concentrator X UF columns according to the manufacturers' recommended procedures.
(§2) Approximately 200 μg of Protein A purified samples from Cell Lines 1 and 2 were treated with N-glycanase at 37° C. overnight to remove the N-glycans from the protein. The protein was precipitated and the supernatant was taken for subsequent chemical derivatization of the reducing end of the released glycans with 2-aminobenzamide (2-AB) dye. Following the derivatization step, the excess label was removed using clean up cartridges and the samples were analyzed using normal phase HPLC with fluorescent detection. Mobile phase A was 100% acetonitrile and mobile phase B was 50 mM ammonium formate pH 4.4. The glycans were eluted from a polyamide column (Prozyme, Hayward, Calif.) using a shallow gradient. The labeled glycans were detected using a fluorescence detector with an excitation wavelength of 330 nm and an emission wavelength of 420 nm.
Cell Line 3 was evaluated in shake flask culture in chemically defined media supplemented with 7, 15, and 30 mM sucrose. There was a significant increase in overall mannosylation levels, and thus a significant decrease in overall fucosylation levels. […] This cumulative increase of 19% in overall mannosylated N-glycans was accompanied by a 27% drop in NGA2F species, the majority of which was precluded from being formed due to the abrogation of the N-glycan biosynthetic reaction shown in FIG. 2. […] Antibody 3, purified from the sucrose supplemented cell cultures, was tested in a Cr-51 release assay to evaluate effector function, specifically ADCC activity. This was performed to verify that the lower level of fucosylated N-glycans linked to Antibody 3 would facilitate an increase in ADCC activity. Antibodies purified from the 30 mM sucrose supplemented culture had the highest levels of high mannose N-glycans, and lowest levels of fucosylated N-glycans.

Cell Line 2 [1] = experiment: N-glycan oligosaccharide profiling, Cell Line 2 shake flasks (Example 1); conditions: 30 mM supplement vs control
Protocol: (§3) Two recombinant Chinese Hamster Ovary (CHO) cell lines expressing two different humanized monoclonal antibodies (Antibody 1, Antibody 2) were evaluated in two different culture vessels (shaker flasks and laboratory scale bioreactors). Both cell lines were of CHO DUX-B11 origin based on a dhfr (dihydrofolate reductase) expression system. Both cell lines were cultured in the same chemically defined basal media (CDBM), with Cell Line 1 also utilizing a chemically-defined feed media (CDFM). Each of the respective media were supplemented with selected monosaccharides and oligosaccharides to evaluate their potential impact on the resulting N-glycan oligosaccharide profile. In preparing the cultures, the cell lines were serially expanded through separate seed train inoculums to generate enough cells for inoculation.
as §1, §2
Cell Line 2 was evaluated in shake flask culture in semi-fedbatch mode. Sucrose was supplemented into the basal media at various concentrations to evaluate the resulting impact on cell culture performance, as well as the protein glycosylation profile. On average, 7 mM, 15 mM, and 30 mM sucrose all nominally impacted overall cell growth, with only slight drops in peak viable cell density (1×10^6-2×10^6 cells/mL) as compared to the unsupplemented control. […] There was however, a very significant impact on the protein glycosylation profiles of harvest samples across all sucrose concentrations evaluated (FIG. 12). A concentration-dependent modulation of protein glycosylation was observed that was consistent with the results obtained for Cell Line 1.

Cell Line 2 [2] = experiment: Shake flask semi-fedbatch culture of Cell Line 2, cell culture performance (Example 1); conditions: 7 mM
Protocol: as §3
Viable cell density (VCD) and cell viability values were measured through trypan blue exclusion via Cedex automated cell counters (Roche Applied Science, Indianapolis, Ind.), glucose and lactate values were measured with a ABL-805 (Radiometer Medical, Denmark) blood gas analyzer. Offline pH, dissolved oxygen (DO), and pCO2 measurements were performed with a ABL-805 (Radiometer Medical, Denmark) blood gas analyzer. Osmolality was measured on a Multi-Osmette 2430 osmometer (Precision Systems, Natick, Mass.).
Antibody titers were measured from crude cell culture harvests on a Poros A™ (Life Technologies, Carlsbad, Calif.) affinity column using an Agilent (Santa Clara, Calif.) 1200 Series HPLC, or equivalent, operating with a low pH, step elution gradient with detection at 280 nm. Absolute concentrations were assigned with respect to reference standard calibration curves.
Cell Line 2 was evaluated in shake flask culture in semi-fedbatch mode. Sucrose was supplemented into the basal media at various concentrations to evaluate the resulting impact on cell culture performance, as well as the protein glycosylation profile. […] There was however, a very significant impact on the protein glycosylation profiles of harvest samples across all sucrose concentrations evaluated (FIG. 12). […]

Which “cumulative increase in overall mannosylated N-glycans” value (Cell Line 3) does the source give for `OC[C@H]1O[C@@](CO)(O[C@H]2O[C@H](CO)[C@@H](O)[C@H](O)[C@H]2O)[C@@H](O)[C@@H]1O` [sucrose] here?
The value was 19%.

And the “decrease in overall fucosylation level” value (Cell Line 3)?
The value was 19%.

What about the “drop in NGA2F species” value (Cell Line 3) of the same compound?
The value was 27%.

What about the “increase in Man 5 species” value (Cell Line 3) of the same compound?
The value was 17%.

And the “increase in Man 6 species” value (Cell Line 3)?
The value was 1%.

What about the “increase in Man 7 species” value (Cell Line 3) of the same compound?
The value was 1%.

What about the “increase in NGA2F-GlcNAc species” value (Cell Line 3) of the same compound?
Its value is 8%.

And the “cumulative increase in overall mannosylated N-glycans” value (Cell Line 2 [1])?
Its value is 19%.

And the “drop in NGA2F species” value (Cell Line 2 [1])?
The value was 27%.

And the “drop in overall fucosylation” value (Cell Line 2 [1])?
Its value is 19%.

What about the “increase in Man 5 species” value (Cell Line 2 [1]) of the same compound?
Its value is ≤ 17%.

And the “increase in Man 6 species” value (Cell Line 2 [1])?
The value was 1%.

What about the “increase in Man 7 species” value (Cell Line 2 [1]) of the same compound?
Its value is 1%.

And the cell viability (Cell Line 2 [2]; 15 mM and 30 mM)?
The cell viability was “not significantly different from each other”.

What about the harvest titer (Cell Line 2 [2]; 15 mM and 30 mM) of the same compound?
The harvest titer was “not significantly different from each other”.

What about the “drop in peak viable cell density” value (Cell Line 2 [2]; 15 mM and 30 mM vs control) of the same compound?
The value was 1×10^6-2×10^6 cells/mL.

Reference: US9499614B2, “Methods for modulating protein glycosylation profiles of recombinant protein therapeutics using monosaccharides and oligosaccharides” (AbbVie, Inc., priority 2013, dated 2016)
